Results taken from article PMC10945555, “Improving Activity of New Arylurea Agents against Multidrug-Resistant and Biofilm-Producing Staphylococcus epidermidis” (ACS Medicinal Chemistry Letters, 2024).
In brackets after ≈: the same amount, converted by molar mass. Where two headings read alike, the source gives them in different places.

What was measured:
Format in all cases: cell-based
[1] = test system: Staphylococcus aureus ATCC BAA-976; assay: MIC, broth microdilution, MDR/BPSA reference strain; conditions: ATCCBAA976; Staphylococcus aureus ATCC BAA-976; read-out: MIC MDR/BPSA
In short: (§1)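 Compounds tested as free bases dissolved in DMSO (1 mg/mL stock); determinations done twice; linezolid as positive control.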

[2] = test system: Staphylococcus epidermidis ATCC 35984; assay: MIC, broth microdilution, MDR/BPSE reference strain; conditions: Staphylococcus epidermidis, ATCC35984, read-out: MIC MDR/BPSE, Staphylococcus epidermidis ATCC 35984
In short: as §1

[3] = test system: clinical MDR Staphylococcus epidermidis isolates; assay: MIC, broth microdilution, 81 clinical MDR strains; conditions: Staphylococcus epidermidis
In short: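 MICs were determined by twofold broth microdilution in cation-adjusted Mueller-Hinton II broth per EUCAST, over 50–0.1 µg/mL, in duplicate. Compounds were tested as free bases dissolved in DMSO; MIC50 and MIC90 were derived across the 81 clinical MDR S. epidermidis strains.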

O=C(Nc1cccc(Cl)c1)NC1CCN(CCC(Oc2ccc(C(F)(F)F)cc2)c2cccs2)CC1 (stereo not shown) [Compound 25]
MIC [1]: 1.6 µg/mL (≈ 2.97 µM) | MIC [2]: ≤ 0.8 µg/mL | MIC ([3]; 81 clinical strains (Table S5), read-out: Average of MIC): 1.84 µg/mL (≈ 3.42 µM) | MIC ([3]; clinical strain 1 (Table S2), read-out: MIC): 0.8 µg/mL (≈ 1.49 µM) | MIC ([3]; clinical strain 1 (Table S5), read-out: MIC): 1.6 µg/mL (≈ 2.97 µM) | MIC ([3]; clinical strain 2 (Table S2), read-out: MIC): 0.8 µg/mL (≈ 1.49 µM) | MIC ([3]; clinical strain 2 (Table S5), read-out: MIC): 1.6 µg/mL (≈ 2.97 µM) | MIC ([3]; clinical strain 3 (Table S2), read-out: MIC): 0.8 µg/mL (≈ 1.49 µM) | MIC ([3]; clinical strain 3 (Table S5), read-out: MIC): 0.8 µg/mL (≈ 1.49 µM) | MIC ([3]; clinical strain 4 (Table S2), read-out: MIC): 3.12 µg/mL (≈ 5.81 µM) | MIC ([3]; clinical strain 4 (Table S5), read-out: MIC): 1.6 µg/mL (≈ 2.97 µM) | MIC ([3]; clinical strain 5 (Table S2), read-out: MIC): 0.8 µg/mL (≈ 1.49 µM) | MIC ([3]; clinical strain 6 (Table S2), read-out: MIC): 1.6 µg/mL (≈ 2.97 µM) | MIC ([3]; clinical strain 6 (Table S5), read-out: MIC): 1.6 µg/mL (≈ 2.97 µM) | MIC ([3]; clinical strain 7 (Table S2), read-out: MIC): 1.6 µg/mL (≈ 2.97 µM) | MIC ([3]; clinical strain 7 (Table S5), read-out: MIC): 1.6 µg/mL (≈ 2.97 µM) | MIC ([3]; clinical strain 8 (Table S2), read-out: MIC): 1.6 µg/mL (≈ 2.97 µM) | MIC ([3]; clinical strain 8 (Table S5), read-out: MIC): 0.8 µg/mL (≈ 1.49 µM) | MIC ([3]; clinical strain 9 (Table S2), read-out: MIC): 0.8 µg/mL (≈ 1.49 µM) | MIC ([3]; clinical strain 9 (Table S5), read-out: MIC): 3.12 µg/mL (≈ 5.81 µM) | MIC ([3]; clinical strain 10 (Table S2), read-out: MIC): 3.12 µg/mL (≈ 5.81 µM) | MIC ([3]; clinical strain 10 (Table S5), read-out: MIC): 3.12 µg/mL (≈ 5.81 µM) | MIC ([3]; clinical strain 11 (Table S2), read-out: MIC): 1.6 µg/mL (≈ 2.97 µM) | MIC ([3]; clinical strain 11 (Table S5), read-out: MIC): 1.6 µg/mL (≈ 2.97 µM) | MIC ([3]; clinical strain 12 (Table S2), read-out: MIC): 3.12 µg/mL (≈ 5.81 µM) | MIC ([3]; clinical strain 12 (Table S5), read-out: MIC): 1.6 µg/mL (≈ 2.97 µM) | MIC ([3]; clinical strain 13 (Table S2), read-out: MIC): 1.6 µg/mL (≈ 2.97 µM) | MIC ([3]; clinical strain 13 (Table S5), read-out: MIC): 1.6 µg/mL (≈ 2.97 µM) | MIC ([3]; clinical strain 14 (Table S2), read-out: MIC): 3.12 µg/mL (≈ 5.81 µM) | MIC ([3]; clinical strain 14 (Table S5), read-out: MIC): 1.6 µg/mL (≈ 2.97 µM) | MIC ([3]; clinical strain 15 (Table S2), read-out: MIC): 1.6 µg/mL (≈ 2.97 µM) | MIC ([3]; clinical strain 15 (Table S5), read-out: MIC): 3.12 µg/mL (≈ 5.81 µM) | MIC ([3]; clinical strain 16 (Table S2), read-out: MIC): 3.12 µg/mL (≈ 5.81 µM) | MIC ([3]; clinical strain 16 (Table S5), read-out: MIC): 1.6 µg/mL (≈ 2.97 µM) | MIC ([3]; clinical strain 17 (Table S2), read-out: MIC): 1.6 µg/mL (≈ 2.97 µM) | MIC ([3]; clinical strain 17 (Table S5), read-out: MIC): 0.1 µg/mL (≈ 0.186 µM) | MIC ([3]; clinical strain 18 (Table S2), read-out: MIC): 1.6 µg/mL (≈ 2.97 µM) | MIC ([3]; clinical strain 18 (Table S5), read-out: MIC): 3.12 µg/mL (≈ 5.81 µM) | MIC ([3]; clinical strain 19 (Table S2), read-out: MIC): 1.6 µg/mL (≈ 2.97 µM) | MIC ([3]; clinical strain 19 (Table S5), read-out: MIC): 0.8 µg/mL (≈ 1.49 µM) | MIC ([3]; clinical strain 20 (Table S2), read-out: MIC): 0.1 µg/mL (≈ 0.186 µM) | MIC ([3]; clinical strain 20 (Table S5), read-out: MIC): 1.6 µg/mL (≈ 2.97 µM) | MIC ([3]; clinical strain 21 (Table S2), read-out: MIC): 1.6 µg/mL (≈ 2.97 µM) | MIC ([3]; clinical strain 21 (Table S5), read-out: MIC): 1.6 µg/mL (≈ 2.97 µM) | MIC ([3]; clinical strain 22 (Table S2), read-out: MIC): 1.6 µg/mL (≈ 2.97 µM) | MIC ([3]; clinical strain 22 (Table S5), read-out: MIC): 0.8 µg/mL (≈ 1.49 µM) | MIC ([3]; clinical strain 23 (Table S2), read-out: MIC): 1.6 µg/mL (≈ 2.97 µM) | MIC ([3]; clinical strain 23 (Table S5), read-out: MIC): 1.6 µg/mL (≈ 2.97 µM) | MIC ([3]; clinical strain 24 (Table S2), read-out: MIC): 0.8 µg/mL (≈ 1.49 µM) | MIC ([3]; clinical strain 24 (Table S5), read-out: MIC): 1.6 µg/mL (≈ 2.97 µM) | MIC ([3]; clinical strain 25 (Table S2), read-out: MIC): 3.12 µg/mL (≈ 5.81 µM) | MIC ([3]; clinical strain 25 (Table S5), read-out: MIC): 0.8 µg/mL (≈ 1.49 µM) | MIC ([3]; clinical strain 26 (Table S2), read-out: MIC): 1.6 µg/mL (≈ 2.97 µM) | MIC ([3]; clinical strain 26 (Table S5), read-out: MIC): 3.12 µg/mL (≈ 5.81 µM) | MIC ([3]; clinical strain 27 (Table S2), read-out: MIC): 0.4 µg/mL (≈ 0.743 µM) | MIC ([3]; clinical strain 27 (Table S5), read-out: MIC): 3.12 µg/mL (≈ 5.81 µM) | MIC ([3]; clinical strain 28 (Table S2), read-out: MIC): 0.8 µg/mL (≈ 1.49 µM) | MIC ([3]; clinical strain 28 (Table S5), read-out: MIC): 0.8 µg/mL (≈ 1.49 µM) | MIC ([3]; clinical strain 29 (Table S2), read-out: MIC): 1.6 µg/mL (≈ 2.97 µM) | MIC ([3]; clinical strain 29 (Table S5), read-out: MIC): 0.4 µg/mL (≈ 0.743 µM) | MIC ([3]; clinical strain 30 (Table S2), read-out: MIC): 3.12 µg/mL (≈ 5.81 µM) | MIC ([3]; clinical strain 30 (Table S5), read-out: MIC): 0.8 µg/mL (≈ 1.49 µM) | MIC ([3]; clinical strain 31 (Table S2), read-out: MIC): 0.8 µg/mL (≈ 1.49 µM) | MIC ([3]; clinical strain 31 (Table S5), read-out: MIC): 1.6 µg/mL (≈ 2.97 µM) | MIC ([3]; clinical strain 32 (Table S2), read-out: MIC): 1.6 µg/mL (≈ 2.97 µM) | MIC ([3]; clinical strain 32 (Table S5), read-out: MIC): 1.6 µg/mL (≈ 2.97 µM) | MIC ([3]; clinical strain 33 (Table S2), read-out: MIC): 3.12 µg/mL (≈ 5.81 µM) | MIC ([3]; clinical strain 33 (Table S5), read-out: MIC): 1.6 µg/mL (≈ 2.97 µM) | MIC ([3]; clinical strain 34 (Table S2), read-out: MIC): 1.6 µg/mL (≈ 2.97 µM) | MIC ([3]; clinical strain 34 (Table S5), read-out: MIC): 1.6 µg/mL (≈ 2.97 µM) | MIC ([3]; clinical strain 35 (Table S2), read-out: MIC): 1.6 µg/mL (≈ 2.97 µM) | MIC ([3]; clinical strain 35 (Table S5), read-out: MIC): 1.6 µg/mL (≈ 2.97 µM) | MIC ([3]; clinical strain 36 (Table S2), read-out: MIC): 0.8 µg/mL (≈ 1.49 µM) | MIC ([3]; clinical strain 36 (Table S5), read-out: MIC): 1.6 µg/mL (≈ 2.97 µM) | MIC ([3]; clinical strain 37 (Table S2), read-out: MIC): 1.6 µg/mL (≈ 2.97 µM) | MIC ([3]; clinical strain 37 (Table S5), read-out: MIC): 1.6 µg/mL (≈ 2.97 µM) | MIC ([3]; clinical strain 38 (Table S2), read-out: MIC): 1.6 µg/mL (≈ 2.97 µM) | MIC ([3]; clinical strain 38 (Table S5), read-out: MIC): 1.6 µg/mL (≈ 2.97 µM) | MIC ([3]; clinical strain 39 (Table S2), read-out: MIC): 1.6 µg/mL (≈ 2.97 µM) | MIC ([3]; clinical strain 39 (Table S5), read-out: MIC): 0.8 µg/mL (≈ 1.49 µM) | MIC ([3]; clinical strain 40 (Table S2), read-out: MIC): 1.6 µg/mL (≈ 2.97 µM) | MIC ([3]; clinical strain 40 (Table S5), read-out: MIC): 0.8 µg/mL (≈ 1.49 µM) | MIC ([3]; clinical strain 41 (Table S2), read-out: MIC): 0.8 µg/mL (≈ 1.49 µM) | MIC ([3]; clinical strain 41 (Table S5), read-out: MIC): 1.6 µg/mL (≈ 2.97 µM) | MIC ([3]; clinical strain 42 (Table S2), read-out: MIC): 0.8 µg/mL (≈ 1.49 µM)
